Several values for one entry are separate records, joined by “and”; a condition that tells them apart may be missing. Identical values can stand only once.
Tests used:
mice = details: previously determined; cited from earlier work
hKOR = hKOR (Homo sapiens, UniProt P41145); experiment: CAMYEL BRET antagonism assay at hKOR (inhibition of U-50,488); format: cell-based; details: for raw BRET response, antagonist activity at the hKOR (Supplementary Figure 10A): vs EC80 U50,488, replicate raw values
WT C57 and MOR KO mice = experiment: Tail-flick in wild-type and MOR KO mice; format: in vivo, mouse; details: individual animals
Experimental: CD1 mice (n = 10), at peak analgesic time point. […] Dose–response curves of 22 (s.c.), in the tail-flick assay was evaluated 15 min post drug administration in WT, C57 mice (n = 8) and MOR KO mice (n = 5). Each point represents mean ± SEM.
To confirm that the low-efficacy analgesia is driven by MOR, and no other targets or mechanisms (e.g., other opioid receptors or non-opioid off-targets), we performed the mouse tail-flick assay in wild-type (WT), and MOR knockout (MOR KO) mice with the same genetic background (Fig. 9e).
For analgesic testing in KO animals, wild-type, male C57BL/6 mice (22–33 g), 10–12 weeks were purchased from the Jackson Lab (Bar Harbor, ME). These mice were kept at a constant temperature of 22 ± 2 °C, and relative humidity was maintained at 40–50%. Exon-1/Exon-11 MOR-1 KO mice on a C57 background were bred in the Pintar laboratory at Rutgers University. All mice were maintained on a 12-hour light/dark cycle with food and water available ad libitum, and housed in groups of five until testing. All testing was done in the light cycle.
Analgesia was tested in wild-type and MOR KO animals by the radiant heat tail-flick technique using an IITC Model 33 Tail Flick Analgesia Meter as previously described. The intensity was set to achieve a baseline between 2 and 3 s. Tail-flick antinociception was assessed as an increase in baseline latency, with a maximal 10 s latency to minimize damage to the tail. Data were analyzed as percent maximal effect, % MPE, which was calculated according to the formula: % MPE [(observed latency − baseline latency)/(maximal latency − baseline latency)] × 100. Compounds were administered s.c. as indicated in the figures, and analgesia was assessed at the peak effect (15 min). Mice were tested for analgesia with cumulative subcutaneous doses of the drug until the mouse can withstand the maximal latency. Once the mouse reached the maximal latency, the mouse was no longer given higher doses. In vivo experiments were evaluated using GraphPad Prism 8, San Diego, CA as described above. […]
dilution series was prepared for the desired doses of 0.1, 0.3, 1, 3, and 10 mg/kg (concentrations 0.01 mg/mL, 0.03 mg/mL, 0.1 mg/mL, 0.3 mg/mL, and 1 mg/mL respectively). Solutions were filtered through a PTFE 0.45μm syringe filter and administered s.c. at a max volume of 300μL.
Tail Flick (Dose – response)
Tail flick antinociception was determined using the radiant heat tail flick technique using an Ugo Basile model 37360 instrument as previously described.21,22 The intensity was set to achieve a baseline between 2 and 3 s. Baseline latencies were determined before experimental treatments for all mice. Tail flick antinociception was assessed as an increase in baseline latency, with a maximal 15 s latency to minimize damage to the tail. Data were analyzed as percent maximal effect, %MPE, and was calculated according to the formula: % MPE = [(observed latency – baseline latency)/(maximal latency – baseline latency)] × 100.
Compounds were injected subcutaneously (s.c.) and antinociception was assessed at the peak effect. Mice were tested for analgesia with cumulative subcutaneous doses of the drug until the mouse can withstand the maximal latency. Once the mouse reached the maximal latency, the mouse was no longer given higher doses. The analgesia experiments were performed by blinding the experimenter to the identity of 7OH versus 11-F-7OH. In vivo experiments were evaluated using GraphPad Prism 8, San Diego, CA as described […]
Analgesia was tested in wild-type and MOR KO animals by the radiant heat tail-flick technique using an IITC Model 33 Tail Flick Analgesia Meter as previously described.23 The intensity was set to achieve a baseline between 2 and 3 s. Tail flick antinociception was assessed as an increase in baseline latency, with a maximal 10 s latency to minimize damage to the tail. Data were analyzed as percent maximal effect, %MPE, which was calculated according to the formula: % MPE [(observed latency − baseline […]

Chain of hKOR (P41145 whole entry): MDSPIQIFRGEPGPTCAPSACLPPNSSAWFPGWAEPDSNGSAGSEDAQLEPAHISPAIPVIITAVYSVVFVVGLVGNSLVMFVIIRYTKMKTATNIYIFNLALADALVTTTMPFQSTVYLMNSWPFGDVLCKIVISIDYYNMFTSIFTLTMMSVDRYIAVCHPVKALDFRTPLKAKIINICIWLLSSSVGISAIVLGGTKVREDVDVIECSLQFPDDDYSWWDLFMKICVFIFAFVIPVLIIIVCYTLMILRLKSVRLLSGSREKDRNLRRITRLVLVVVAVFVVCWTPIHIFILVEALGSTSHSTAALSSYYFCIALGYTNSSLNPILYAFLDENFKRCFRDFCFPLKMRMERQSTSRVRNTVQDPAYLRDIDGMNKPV

CC[C@@H]1CN2CC[C@@]3(O)C(=Nc4cccc(OC)c43)[C@@H]2C[C@@H]1/C(=C\OC)C(=O)OC [7OH, 7-Hydroxymitragynine, reference compound]
ED50 (95% CI) mouse tail-flick (mice): 0.57 (0.19–1.7) mg/kg

CC[C@@H]1CN2CC[C@@]3(O)C(=Nc4cc(Br)cc(OC)c43)[C@@H]2C[C@@H]1/C(=C\OC)C(=O)OC [11-Br-7OH (24), 11-Br-7OH]
raw BRET response, antagonist activity at the hKOR (Supplementary Figure 10A) (hKOR; Log[drug] (M) -5): 0.01109 and 0.005199 and -0.00757 and 0.006133 and 0.001515 and 0.001933 and 0.02329 and 0.01475 and 0.01349 | raw BRET response, antagonist activity at the hKOR (Supplementary Figure 10A) (hKOR; Log[drug] (M) -6): 0.0143 and 0.01072 and 0.01916 and 0.07074 and 0.07832 and 0.07872 and 0.07001 and 0.07357 and 0.05372 | raw BRET response, antagonist activity at the hKOR (Supplementary Figure 10A) (hKOR; Log[drug] (M) -7): 0.06437 and 0.07728 and 0.08334 and 0.1589 and 0.1581 and 0.1664 and 0.1453 and 0.1454 and 0.1482 | raw BRET response, antagonist activity at the hKOR (Supplementary Figure 10A) (hKOR; Log[drug] (M) -8): 0.1403 and 0.1362 and 0.1374 and 0.1753 and 0.1713 and 0.1791 | raw BRET response, antagonist activity at the hKOR (Supplementary Figure 10A) (hKOR; Log[drug] (M) -9): 0.09403 and 0.08676 and 0.08107 and 0.1704 and 0.1868 and 0.1861 and 0.1635 and 0.1852 and 0.1823 | raw BRET response, antagonist activity at the hKOR (Supplementary Figure 10A) (hKOR; Log[drug] (M) -10): 0.09782 and 0.1078 and 0.1073 and 0.1956 and 0.1911 and 0.1936 and 0.176 and 0.1692 and 0.1714 | raw BRET response, antagonist activity at the hKOR (Supplementary Figure 10A) (hKOR; Log[drug] (M) -11): 0.1073 and 0.09367 and 0.109 and 0.2072 and 0.1833 and 0.1925 and 0.1707 and 0.1895 and 0.1659 | antagonism at hKOR (hKOR; inhibition of reference agonist U50,488 (EC80)): full inhibition

CC[C@@H]1CN2CC[C@@]3(O)C(=Nc4cc(F)cc(OC)c43)[C@@H]2C[C@@H]1/C(=C\OC)C(=O)OC [11-F-7OH (22), 11-Fluoro-7-hydroxymitragynine]
Antinociceptive effect, MOR KO (WT C57 and MOR KO mice; dose 0.1): 40.7407 and 22.4138 and -2.941 and 22.6277 and 21.0084 | Antinociceptive effect, MOR KO (WT C57 and MOR KO mice; dose 0.3): 14.0741 and 33.6207 and 22.0588 and 13.1387 and 14.2857 | Antinociceptive effect, MOR KO (WT C57 and MOR KO mice; dose 1): 30.3704 and 1.724 and 19.8529 and 38.6861 and -26.8908 | Antinociceptive effect, MOR KO (WT C57 and MOR KO mice; dose 3): 30.3704 and -6.897 and 22.0588 and 27.0073 and 1.681 | Antinociceptive effect, MOR KO (WT C57 and MOR KO mice; dose 10): 100 and 18.1034 and -5.882 and 26.2774 and -0.8403 | Antinociceptive effect, Wild Type (WT C57 and MOR KO mice; dose 0.1): 7.432 and 25.9259 and 5.926 and 9.722 and -11.5108 and 0 and 3.521 and -7.971 | Antinociceptive effect, Wild Type (WT C57 and MOR KO mice; dose 0.3): 22.2973 and 19.2593 and 0 and 16.6667 and -0.7194 and 4.895 and -7.746 and 40.5797 | Antinociceptive effect, Wild Type (WT C57 and MOR KO mice; dose 1): 71.6216 and -1.481 and 44.4444 and 10.4167 and 5.036 and 71.3287 and 100 and 14.4927 | Antinociceptive effect, Wild Type (WT C57 and MOR KO mice; dose 3): 100 (3×) and 5.185 and 43.7037 and 11.1111 and 41.0072 and -2.899 | Antinociceptive effect, Wild Type (WT C57 and MOR KO mice; dose 10): 62.1622 and 30.3704 and 25.1852 and 100 (2×) and 12.2302 and 25.1748 and 47.1014
